Measurements from patent US20060223879A1, “Non-steroidal farnesoid x receptor modulators” (priority 2002, published 2006).
“Also recorded” adds a separate entry of the source.

Each molecule was assayed against T1, FXR (Homo sapiens, UniProt Q96RI1) (assay: cell-based transcription assay, FXR responsive promoter linked to a luciferase reporter). Conditions: FXR activation, cell-based reporter assay; read-out: EC50.
T1 construct: using a full length FXR on a natural response element; expressed in transfected cells
T1 sequence (Q96RI1 1-486): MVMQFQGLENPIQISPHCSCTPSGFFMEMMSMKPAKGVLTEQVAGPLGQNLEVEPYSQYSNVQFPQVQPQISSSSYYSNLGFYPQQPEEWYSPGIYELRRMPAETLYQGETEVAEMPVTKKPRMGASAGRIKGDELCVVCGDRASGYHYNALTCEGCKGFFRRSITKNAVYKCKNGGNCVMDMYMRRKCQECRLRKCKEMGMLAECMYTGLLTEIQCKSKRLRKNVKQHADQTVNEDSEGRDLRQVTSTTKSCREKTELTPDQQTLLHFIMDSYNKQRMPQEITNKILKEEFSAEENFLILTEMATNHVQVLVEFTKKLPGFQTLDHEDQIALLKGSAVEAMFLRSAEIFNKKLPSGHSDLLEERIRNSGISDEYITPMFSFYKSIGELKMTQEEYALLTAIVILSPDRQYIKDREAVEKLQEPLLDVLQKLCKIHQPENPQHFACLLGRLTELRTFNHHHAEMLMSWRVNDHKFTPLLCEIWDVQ
Design: RE: scale not given here
Text: In addition to ensuring that only cell permeable compounds were selected for further optimization, this approach allows for the detection of FXR activation in a natural system (i.e., correct folding of the protein and in the presence of a complete compliment of co-activators and co-repressors).
The feasibility of creating high throughput screens (XIS) for ORs was explored using FXR as a candidate orphan receptor (OR) with a known activator, chenodeoxycholic acid (CDCA) as a ligand. The screen is based on the co-transfection of a full-length receptor with the reporter vector containing a natural hormone response element under a minimal eukaryotic promoter. […] Using this 384-well format, the high throughput screening (HTS) approach to FXR as a candidate OR was employed. […] A central question in the feasibility studies is whether this library is suitable for screening for nuclear receptor ligands. Samples of this library were first reformatted into a 384-well format and then subjected to the FXR cell-based assays described above and assessed for FXR-mediated transcriptional activity. Cells were exposed to approximately 10 μM of sample for 18 hrs prior to washing and luciferase analysis.
EC50 values were determined with Prism 3.0 software via the activity of the subject compound in the previously described cell based assay.
With `COC(=O)C=Cc1cccc(N(Cc2ccc(C=Cc3ccccn3)cc2)C(=O)C2CCCCC2)c1` [Compound 207] the EC50 was 309 nM. In the case of `COC(=O)C=Cc1cccc(N(Cc2ccc(C=Cc3scnc3C)cc2)C(=O)C2CCCCC2)c1` [Compound 210], the EC50 is reported as 227 nM.

Same assay, conditions: Tables 1-15; FXR activation, cell-based reporter assay; read-out: EC50
For `COC(=O)/C=C/c1cccc(N(Cc2ccc(/C=C/c3c(Cl)cccc3Cl)cc2)C(=O)C(C)C)c1` [Compound 178], the EC50 was 195 nM. `COC(=O)C=Cc1cccc(N(Cc2ccc(C=Cc3cccc(Cl)c3)cc2)C(=O)C2CCCCC2)c1` [Compound 180] showed an EC50 of 165 nM. For `COC(=O)/C=C/c1cccc(N(Cc2ccc(/C=C/c3cccc(Cl)c3)cc2)C(=O)C(C)C)c1` [Compound 181], the EC50 was 264 nM. With `COC(=O)/C=C/c1cccc(N(Cc2ccc(/C=C/c3cccc(Cl)c3)cc2)C(=O)NC(C)C)c1` [Compound 182] the EC50 was 339 nM. For `COC(=O)/C=C/c1cccc(N(Cc2ccc(/C=C/c3cc(C(F)(F)F)cc(C(F)(F)F)c3)cc2)C(=O)C(C)C)c1` [Compound 184], the EC50 was 1950 nM. Molecule `COC(=O)/C=C/c1cccc(N(Cc2ccc(/C=C/c3cc(C(F)(F)F)cc(C(F)(F)F)c3)cc2)C(=O)NC(C)C)c1` [Compound 185] has an EC50 of 1830 nM. `COC(=O)/C=C/c1cccc(N(Cc2ccc(/C=C/c3cccc(C(F)(F)F)c3)cc2)C(=O)C(C)C)c1` [Compound 187] was tested, and the EC50 was 267 nM. Work on `COC(=O)C=Cc1cccc(N(Cc2ccc(C=Cc3c(F)cccc3F)cc2)C(=O)C2CCCCC2)c1` [Compound 189] yielded an EC50 of 174 nM. For `COC(=O)/C=C/c1cccc(N(Cc2ccc(/C=C/c3c(F)cccc3F)cc2)C(=O)NC(C)C)c1` [Compound 191], the EC50 was 4020 nM. `COC(=O)C=Cc1cccc(N(Cc2ccc(C=Cc3ccccc3F)cc2)C(=O)C2CCCCC2)c1` [Compound 192] showed an EC50 of 64 nM. For `COC(=O)/C=C/c1cccc(N(Cc2ccc(/C=C/c3ccccc3F)cc2)C(=O)C(C)C)c1` [Compound 193], the EC50 was 70 nM. `COC(=O)/C=C/c1cccc(N(Cc2ccc(/C=C/c3ccccc3F)cc2)C(=O)NC(C)C)c1` [Compound 194] was tested, and the EC50 was 431 nM. Molecule `COC(=O)C=Cc1cccc(N(Cc2ccc(C=Cc3c(C)cc(C)cc3C)cc2)C(=O)C2CCCCC2)c1` [Compound 195] has an EC50 of 518 nM. With `COC(=O)/C=C/c1cccc(N(Cc2ccc(/C=C/c3c(C)cc(C)cc3C)cc2)C(=O)C(C)C)c1` [Compound 196] the EC50 was 149 nM. Work on `COC(=O)/C=C/c1cccc(N(Cc2ccc(/C=C/c3c(C)cc(C)cc3C)cc2)C(=O)NC(C)C)c1` [Compound 197] yielded an EC50 of 431 nM. `COC(=O)/C=C/c1cccc(N(Cc2ccc(/C=C/c3ccccc3)cc2)C(=O)C(C)C)c1` [Compound 198] was tested, and the EC50 was 65 nM. Work on `COC(=O)/C=C/c1cccc(N(Cc2ccc(/C=C/c3ccccc3)cc2)C(=O)NC(C)C)c1` [Compound 200] yielded an EC50 of 119 nM. Molecule `COC(=O)C=Cc1cccc(N(Cc2ccc(C=Cc3cccc(F)c3)cc2)C(=O)C2CCCCC2)c1` [Compound 201] has an EC50 of 86 nM. For `COC(=O)/C=C/c1cccc(N(Cc2ccc(/C=C/c3cccc(F)c3)cc2)C(=O)C(C)C)c1` [Compound 202], the EC50 was 71 nM. Molecule `COC(=O)/C=C/c1cccc(N(Cc2ccc(/C=C/c3cccc(F)c3)cc2)C(=O)NC(C)C)c1` [Compound 203] has an EC50 of 467 nM. `COC(=O)C=Cc1cccc(N(Cc2ccc(C=Cc3ccc(F)cc3)cc2)C(=O)C2CCCCC2)c1` [Compound 204] was tested, and the EC50 was 185 nM.

Same assay, conditions: Tables 1-15; RE not defined in the source
`COC(=O)/C=C/c1cccc(N(Cc2ccc(/C=C/c3c(Cl)cccc3Cl)cc2)C(=O)C(C)C)c1` [Compound 178] was tested, and the RE was 0.14. `COC(=O)C=Cc1cccc(N(Cc2ccc(C=Cc3cccc(Cl)c3)cc2)C(=O)C2CCCCC2)c1` [Compound 180] showed an RE of 1.41. Molecule `COC(=O)/C=C/c1cccc(N(Cc2ccc(/C=C/c3cccc(Cl)c3)cc2)C(=O)C(C)C)c1` [Compound 181] has an RE of 1.09. `COC(=O)/C=C/c1cccc(N(Cc2ccc(/C=C/c3cccc(Cl)c3)cc2)C(=O)NC(C)C)c1` [Compound 182] gave an RE of 0.58. Molecule `COC(=O)/C=C/c1cccc(N(Cc2ccc(/C=C/c3cc(C(F)(F)F)cc(C(F)(F)F)c3)cc2)C(=O)C(C)C)c1` [Compound 184] has an RE of 0.13. `COC(=O)/C=C/c1cccc(N(Cc2ccc(/C=C/c3cc(C(F)(F)F)cc(C(F)(F)F)c3)cc2)C(=O)NC(C)C)c1` [Compound 185] was tested, and the RE was 0.13. `COC(=O)/C=C/c1cccc(N(Cc2ccc(/C=C/c3cccc(C(F)(F)F)c3)cc2)C(=O)C(C)C)c1` [Compound 187] was tested, and the RE was 0.70. `COC(=O)C=Cc1cccc(N(Cc2ccc(C=Cc3c(F)cccc3F)cc2)C(=O)C2CCCCC2)c1` [Compound 189] showed an RE of 0.94. `COC(=O)/C=C/c1cccc(N(Cc2ccc(/C=C/c3c(F)cccc3F)cc2)C(=O)NC(C)C)c1` [Compound 191] was tested, and the RE was 0.21. Work on `COC(=O)C=Cc1cccc(N(Cc2ccc(C=Cc3ccccc3F)cc2)C(=O)C2CCCCC2)c1` [Compound 192] yielded an RE of 1.41. In the case of `COC(=O)/C=C/c1cccc(N(Cc2ccc(/C=C/c3ccccc3F)cc2)C(=O)C(C)C)c1` [Compound 193], the RE is reported as 1.17. `COC(=O)/C=C/c1cccc(N(Cc2ccc(/C=C/c3ccccc3F)cc2)C(=O)NC(C)C)c1` [Compound 194] was tested, and the RE was 0.89. Work on `COC(=O)C=Cc1cccc(N(Cc2ccc(C=Cc3c(C)cc(C)cc3C)cc2)C(=O)C2CCCCC2)c1` [Compound 195] yielded an RE of 0.24. Work on `COC(=O)/C=C/c1cccc(N(Cc2ccc(/C=C/c3c(C)cc(C)cc3C)cc2)C(=O)C(C)C)c1` [Compound 196] yielded an RE of 0.30. `COC(=O)/C=C/c1cccc(N(Cc2ccc(/C=C/c3c(C)cc(C)cc3C)cc2)C(=O)NC(C)C)c1` [Compound 197] was tested, and the RE was 0.14. `COC(=O)/C=C/c1cccc(N(Cc2ccc(/C=C/c3ccccc3)cc2)C(=O)C(C)C)c1` [Compound 198] gave an RE of 1.33. With `COC(=O)/C=C/c1cccc(N(Cc2ccc(/C=C/c3ccccc3)cc2)C(=O)NC(C)C)c1` [Compound 200] the RE was 1.38. `COC(=O)C=Cc1cccc(N(Cc2ccc(C=Cc3cccc(F)c3)cc2)C(=O)C2CCCCC2)c1` [Compound 201] gave an RE of 1.38. For `COC(=O)/C=C/c1cccc(N(Cc2ccc(/C=C/c3cccc(F)c3)cc2)C(=O)C(C)C)c1` [Compound 202], the RE was 1.33. `COC(=O)/C=C/c1cccc(N(Cc2ccc(/C=C/c3cccc(F)c3)cc2)C(=O)NC(C)C)c1` [Compound 203] was tested, and the RE was 0.61. `COC(=O)C=Cc1cccc(N(Cc2ccc(C=Cc3ccc(F)cc3)cc2)C(=O)C2CCCCC2)c1` [Compound 204] gave an RE of 0.53. For `COC(=O)C=Cc1cccc(N(Cc2ccc(C=Cc3ccccn3)cc2)C(=O)C2CCCCC2)c1` [Compound 207], the RE was 0.61. `COC(=O)C=Cc1cccc(N(Cc2ccc(C=Cc3scnc3C)cc2)C(=O)C2CCCCC2)c1` [Compound 210] showed an RE of 0.53.

Same assay, conditions: cell-based reporter assay
`COC(=O)C=Cc1cccc(N(Cc2ccc(C=Cc3cccc(Cl)c3)cc2)C(=O)C2CCCCC2)c1` [Compound 180] was tested, and the “FXR activation (in words)” value was “excellent activity”. With `COC(=O)/C=C/c1cccc(N(Cc2ccc(/C=C/c3cccc(Cl)c3)cc2)C(=O)C(C)C)c1` [Compound 181] the “FXR activation (in words)” value was “excellent activity”. `COC(=O)C=Cc1cccc(N(Cc2ccc(C=Cc3c(F)cccc3F)cc2)C(=O)C2CCCCC2)c1` [Compound 189] was tested, and the “FXR activation (in words)” value was “excellent activity”. For `COC(=O)C=Cc1cccc(N(Cc2ccc(C=Cc3ccccc3F)cc2)C(=O)C2CCCCC2)c1` [Compound 192], the “FXR activation (in words)” value was “excellent activity; also recorded: among the most active”. With `COC(=O)/C=C/c1cccc(N(Cc2ccc(/C=C/c3ccccc3F)cc2)C(=O)C(C)C)c1` [Compound 193] the “FXR activation (in words)” value was “excellent activity”. `COC(=O)C=Cc1cccc(N(Cc2ccc(C=Cc3c(C)cc(C)cc3C)cc2)C(=O)C2CCCCC2)c1` [Compound 195] was tested, and the “FXR activation (in words)” value was “among the least active”. In the case of `COC(=O)/C=C/c1cccc(N(Cc2ccc(/C=C/c3ccccc3)cc2)C(=O)C(C)C)c1` [Compound 198], the “FXR activation (in words)” value is reported as “excellent activity”. With `COC(=O)C=Cc1cccc(N(Cc2ccc(C=Cc3cccc(F)c3)cc2)C(=O)C2CCCCC2)c1` [Compound 201] the “FXR activation (in words)” value was “excellent activity; also recorded: among the most active”. For `COC(=O)/C=C/c1cccc(N(Cc2ccc(/C=C/c3cccc(F)c3)cc2)C(=O)C(C)C)c1` [Compound 202], the “FXR activation (in words)” value was “excellent activity”. With `COC(=O)C=Cc1cccc(N(Cc2ccc(C=Cc3ccc(F)cc3)cc2)C(=O)C2CCCCC2)c1` [Compound 204] the “FXR activation (in words)” value was “excellent activity; also recorded: among the most active”.
